Drawing on patent publication US9546157B2, “Asymmetric piperidinyl-substituted ureas as medicines” (Helsinn Healthcare SA, priority 2014, dated 2017), this text covers IC50, EC50 and Emax for eleven compounds.

Assay [1] deals with T1, GHSR1a (Homo sapiens, UniProt Q92847).
T1 construct: expressed in transfected cells; host or cells: HEK293
Briefly: Calcium FLIPR assay, GHSR-1a antagonism (reduction of ghrelin response). The conditions noted are these: HEK293/GHSR1a cells, ghrelin 10 nM. Format: cell-based. An outline of the steps: (§1)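 HEK293/GHSR1a; dye load 30-60 min, RT or 37° C; agonist: cpd at t=20 sec, Ca2+ read 2 min; antagonist: cpd + ghrelin 10 nM at t=20 sec, 2 min read; EC50/IC50 from dose-response fits.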

For assay [2], the target named is T1, GHSR1a. Description: Calcium FLIPR assay, GHSR-1a agonism. Format: cell-based. Details: Emax: unit not given here. The conditions noted are these: HEK293/GHSR1a cells. In outline:
as §1

Each structure is given as a SMILES string. A value given as a limit tells only on which side of the number the result lay.

T1 sequence (Q92847 whole entry): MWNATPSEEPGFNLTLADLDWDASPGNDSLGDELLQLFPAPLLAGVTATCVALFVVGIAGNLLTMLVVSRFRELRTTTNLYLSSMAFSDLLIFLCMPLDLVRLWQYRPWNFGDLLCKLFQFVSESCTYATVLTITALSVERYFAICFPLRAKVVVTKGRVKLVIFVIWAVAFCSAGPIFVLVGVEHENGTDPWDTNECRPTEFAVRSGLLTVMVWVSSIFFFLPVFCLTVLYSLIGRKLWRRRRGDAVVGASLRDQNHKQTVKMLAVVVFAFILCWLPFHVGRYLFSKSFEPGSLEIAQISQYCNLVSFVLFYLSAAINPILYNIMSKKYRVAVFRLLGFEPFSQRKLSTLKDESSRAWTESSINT

By IC50 is commonly meant the concentration at which inhibition is half-maximal. Broadly, the EC50 is the midpoint of the concentration-response curve. Turning to `CC(NC(=O)N(C)C1CCN(C)CC1)c1ccc(-c2cnc(C(=O)N(C)C)cn2)c(Cl)c1Cl` (stereo not shown) [Compound H0771, 5-(2,3-dichloro-4-(1-(3-methyl-3-(1-methylpiperidin-4-yl)ureido)ethyl)phenyl)-N,N-dimethylpyrazine-2-carboxamide], the IC50 on GHSR1a [1] was 9 nM. On GHSR1a [2], the EC50 was 9 nM and the Emax stood at 4662.

`CCN1CCN(c2ncc(-c3ccc(C(C)NC(=O)N(C)C4CCN(C)CC4)c(Cl)c3Cl)cn2)CC1=O` (stereo not shown) [Compound H0814, 3-(1-(2,3-dichloro-4-(2-(4-ethyl-3-oxopiperazin-1-yl)pyrimidin-5-yl)phenyl)ethyl)-1-methyl-1-(1-methylpiperidin-4-yl)urea]: the IC50 at GHSR1a [1] was determined as 926 nM. Further, on GHSR1a [2], the EC50 was 15 nM and the Emax came out at 1097.

Regarding `CC(NC(=O)N(C)C1CCN(C)CC1)c1ccc(-c2cnc(C3CC3)nc2)c(Cl)c1Cl` (stereo not shown) [Compound H0854, 3-(1-(2,3-dichloro-4-(2-cyclopropylpyrimidin-5-yl)phenyl)ethyl)-1-methyl-1-(1-methylpiperidin-4-yl)urea], the IC50 on GHSR1a [1] stood at 65 nM. Moreover, at GHSR1a [2], the EC50 was 24 nM and the Emax stood at 3246.

Regarding `CC(NC(=O)N(C)C1CCN(C)CC1)c1ccc(-c2ccc(C3CC3)cn2)c(Cl)c1Cl` (stereo not shown) [Compound H0849, 3-(1-(2,3-dichloro-4-(5-cyclopropylpyridin-2-yl)phenyl)ethyl)-1-methyl-1-(1-methylpiperidin-4-yl)urea], the IC50 on GHSR1a [1] was determined as 37 nM. Also, on GHSR1a [2], the EC50 came out at 51 nM and the Emax turned out to be 1383.

For the compound `CC(NC(=O)N(C)C1CCN(C)CC1)c1cnc(Cl)c(Cl)c1Cl` (stereo not shown) [Compound H0876, 1-methyl-1-(1-methylpiperidin-4-yl)-3-(1-(4,5,6-trichloropyridin-3-yl)ethyl)urea], at GHSR1a [1], the IC50 was determined as 130 nM. In addition, at GHSR1a [2], the EC50 is above 30000 nM.

For the compound `CC(NC(=O)N(C)C1CCN(C)CC1)c1ccc(-c2cccc3[nH]ncc23)c(Cl)c1Cl` (stereo not shown) [Compound H0513, 3-(1-(2,3-dichloro-4-(1H-indazol-4-yl)phenyl)ethyl)-1-methyl-1-(1-methylpiperidin-4-yl)urea], at GHSR1a [1], the IC50 is 544 nM. At GHSR1a [2], the EC50 was above 30000 nM.

As to `CC(NC(=O)N(C)C1CCN(C)CC1)c1ccc(C#N)c2ccccc12` (stereo not shown) [Compound H0790, 3-(1-(4-cyanonaphthalen-1-yl)ethyl)-1-methyl-1-(1-methylpiperidin-4-yl)urea], the IC50 at GHSR1a [1] amounted to 35 nM. Besides, at GHSR1a [2], the EC50 is 32 nM and the Emax is recorded as 2810.

In the case of `CN1CCC(N(C)C(=O)NC(c2ccc(-c3cnccn3)c(Cl)c2Cl)C(F)(F)F)C1` (stereo not shown) [Compound H0871, 3-(1-(2,3-dichloro-4-(pyrazin-2-yl)phenyl)-2,2,2-trifluoroethyl)-1-methyl-1-(1-methylpyrrolidin-3-yl)urea], at GHSR1a [1], the IC50 amounted to 9 nM. At GHSR1a [2], the EC50 was above 30000 nM.

In the case of `Cc1cncc(-c2ccc(C(C)NC(=O)N(C)C3CCN(C)CC3)c(Cl)c2Cl)n1` (stereo not shown) [Compound H0815, 3-(1-(2,3-dichloro-4-(6-methylpyrazin-2-yl)phenyl)ethyl)-1-methyl-1-(1-methylpiperidin-4-yl)urea], the IC50 on GHSR1a [1] worked out at 176 nM. The EC50 on GHSR1a [2] is above 30000 nM.

`CC(NC(=O)N(C)C1CCN(C)CC1)c1ccc(C#Cc2c[nH]cn2)c(Cl)c1Cl` (stereo not shown) [Compound H0763, 3-(1-(4-((1H-imidazol-4-yl)ethynyl)-2,3-dichlorophenyl)ethyl)-1-methyl-1-(1-methylpiperidin-4-yl)urea]: the IC50 on GHSR1a [1] turned out to be 835 nM. Besides, the EC50 at GHSR1a [2] was above 30000 nM.

As to `CC(NC(=O)N(C)C1CCN(C)CC1)c1ccc(NC(=O)c2cccs2)c(Cl)c1Cl` (stereo not shown) [Compound H0772, N-(2,3-dichloro-4-(1-(3-methyl-3-(1-methylpiperidin-4-yl)ureido)ethyl)phenyl)thiophene-2-carboxamide], the IC50 on GHSR1a [1] is 3 nM. In addition, at GHSR1a [2], the EC50 amounted to 7 nM and the Emax is listed as 3569.
